In patent US8598383B2, “Pharmaceutical composition for treating or preventing degenerative and inflammatory diseases” (Neurotech Pharmaceuticals Co., Ltd., priority 2006, dated 2013):

Key:
diabetic symptoms = details: mouse administered streptozotocin; cited from earlier work
BV2 microglia cell line = assay: Suppressing effect on production of NO (LPS, Griess reagent); format: cell-based; details: Mus musculus, BV-2, LPS-treated BV2 microglia, 24 hours incubation
Method: Inhibiting effect of the 2-hydroxybenzoic acid derivative according to the present invention on NO, inflammatory factor intervening inflammation reaction was evaluated. BV2 microglia cell line was treated with lipopolysaccharide (LPS), a inflammation-inducing material of bacteria toxin, with inclusion of 10 uM, 30 uM or 100 uM of the present compound. After 24 hours of incubation, 50 ul of culture medium was collected in 96-well plate. Then, 50 ul of Griess reagent was added and incubated for 10 minutes at room temperature. The absorbance was evaluated by ELISA reader at 540 nm.

gastric mucous membrane = assay: Safety test about induction of gastric mucous membrane damage; format: in vivo; details: oral, high dose; indomethacine, ibuprofen, celecoxib as control
Method: Test samples were orally administered at different doses to evaluate the degree of the gastric mucous membrane damage. Aspirin was used as control.
FIG. 2 is results showing degrees of the gastric mucous membrane damage. Test samples were orally administered at indicated doses. […] Indomethacine, ibuprofen and celecoxib were used as control.
Conventional NSAIDs have side effects causing damages to the gastric mucous membrane. Therefore, it was evaluated whether compound 2 having anti-inflammatory effect causes the gastric damage or not. 30, 100 or 300 mg/kg of aspirin was orally administered as control.

DSS-induced colitis = assay: 5% dextran sulfate sodium (DSS) inflammatory intestinal disease model; format: in vivo, mouse
Method: FIG. 17 is results showing efficacy through 5% dextran sulfate sodium (DSS) model, inflammatory intestinal disease animal model. After treatment of DSS, 10, 25 or 50 mg/kg of compound 18 suspended in 10% vehicle was orally administered. Sham means colon of normal mouse, DSS means colon mouse treated with 5% DSS. The others are pictures of colon of mice administered with compound 18 at indicated dose.
FIG. 20 is an efficacy test result of compound 18 using DSS. After treatment of DSS, compound 18 (25 mg/kg) suspended in 10% vehicle was orally administered. After that, bloody excrement by colon injury, diarrhea and the degree of dirtiness were evaluated as feces score.
5% dextran sulfate sodium (DSS) model was used as inflammatory intestinal disease animal model. 5% DSS mixed with water was orally administered. 5% DSS model causes damage to epithelial cell, and ulcer in left colon and the decrease of colon length are mainly observed in the model. This model is simple and reproductive, and can regulate the degree of inflammation according to dose. Therefore, this model is often used for evaluating drug candidates.
DSS is continuously administered in water bottle. The 2-hydroxybenzoic acid derivative was suspended in 10% vehicle, and orally administered.

[1] = test system: collagen-induced arthritis; assay: Collagen-induced arthritis model (arthritic index); format: in vivo, mouse; details: 25 mg/kg/day intraperitoneal
Method: FIG. 15 is results showing efficacy through arthritis animal model induced by collagen. 25 mg/kg of compound 2, 3 or 18, or methotrexate (control, MTX, 1 mg/kg/week) was intraperitoneally injected after administration of collagen.
FIG. 16 is results showing efficacy of compounds 6 and 11 through arthritis animal model induced by collagen. Collagen was intradermally injected two times with 2 week-interval. One week later, compound 6, compound 11 and methotrexate (control) were intraperitoneally injected. Then, the animals were observed everyday for 2-3 weeks, and results was evaluated by arthritis index.
To evaluate the efficacy of the 2-hydroxybenzoic acid derivative, collagen-induced arthritis model (rheumarthritis animal model) was used. Bovine type II collagen was mixed with complete Freund's adjuvant to make an emulsion, and the emulsion was intradermally injected into the origin site of 8˜10 week-old DBA/1LacJ mouse tail. Intradermal boosting was performed by the same method 2 weeks later. 25 mg/kg/day of compounds 2, 3 and 18, 1 mg/kg/week of methotrexate (comparative example) or 10% vehicle (control) were intraperitoneally injected one week after the second intradermal injection of collagen (FIG. 15). Pictures of foot edema of normal rat (sham), collagen-administered rat (collagen) and compound 18-administered rat (compound 18, 25 mg/kg/day injection) were shown in FIG. 14.
In addition, 50 mg/kg/day of compounds 6 and 11, and 5 mg/kg/2 days of methotrexate (comparative example) were intraperitoneally injected. Phosphate buffered saline was injected as control (FIG. 16). For 2˜3 weeks, the degree of arthritis was observed everyday, and the result was evaluated according to the below arthritic index using edema.
4 paws were evaluated as from 0 to 4 point, Total points: 16

[2] = Single-dose toxicity test; format: in vivo; details: mouse, in vivo; single dose
Method: FIG. 32 is results of single dose toxicity testing of some 2-hydroxybenzoic acid derivatives according to the present invention.
Single-dose toxicities of the 2-hydroxybenzoic acid derivatives were evaluated.

[3] = test system: cerulein-induced pancreatitis; assay: Cerulein-induced acute pancreatitis model; format: in vivo, wistar rat
Method: FIG. 21 is efficacy test results using acute pancreatitis model induced by cerulein. 50 ug/kg of cerulein was administered. Two hours later, edema was induced by administration of LPS. A-C are picture results, and D is graphs showing the weight of pancreas.
FIG. 22 is efficacy test results using acute pancreatitis model induced by cerulein. 50 ug/kg of cerulein was administered. Two hours later, edema was induced by administration of LPS. 25 mg/kg of compound 18 was administered, and the changes of amylase and lipase, pancreatic digestive enzymes, were quantified.
Cerulein-induced pancreatitis model was used as acute pancreatitis model. Cerulein is an analog of cholecystokinin and a hormone causing secretion of pancreatic digestive enzyme in pancreas. Digestive enzyme was over-secreted into pancreas by intraperitoneal injection of cerulein (50 ug/kg). LPS was injected 2 hours later to induce edema. When cerulein was administered, massive edema was observed on the basis of spleen. […] D of FIG. 21 is results showing the pancreas weight increased by the edema.
The model excessively increases digestive enzymes, which are released into blood. That is, the decrease of digestive enzyme in blood can be an indirect evidence for sample to reduce pancreatitis.
To confirm the protecting effect on inflammation, the levels of TNF-α and […], inflammatory cytokines, were evaluated. PGE2, the product of COX-2 (inflammation enzyme), were evaluated by ELISA method.

atherosclerosis = details: early formation of atherosclerotic lesion; cited from earlier work

SMILES: C[C@@H](O)CCCCn1c(=O)c2c(ncn2C)n(C)c1=O [Lisofylline]
- reduction of diabetic symptoms (diabetic symptoms): 50%

SMILES: CC(=O)Oc1ccc(NCCc2ccc(C(F)(F)F)cc2)cc1C(=O)O [compound 18, 2-acetoxy-5-[2-(4-trifluoromethyl-phenyl)-ethylamino]-benzoic acid]
- IC50 (BV2 microglia cell line): 21.6 µM
- gastric mucous membrane damage (gastric mucous membrane): did not cause damage to gastric mucous membrane
- length and width of colon (DSS-induced colitis; oral, 10, 25 or 50 mg/kg in 10% vehicle): significantly changed the length and width of the colon
- feces score (bloody excrement, diarrhea, dirtiness) (DSS-induced colitis; vs DSS only, compound 18 25 mg/kg oral): significantly decreased feces score
- arthritic index [1]: apparent reducing effect
- LD50 [2]: > 3000 mg/kg
- amylase and lipase in plasma ([3]; 25 mg/kg): significantly reduced the increase
- pancreas weight ([3]; 25 mg/kg): significantly reduced pancreas weight
- pancreatic edema ([3]; 25 mg/kg): the edema was decreased
- TNF-α, IL-1β and PGE2 (inflammation markers) ([3]; ELISA): significantly reduced these inflammation markers

SMILES: COc1ccc2c(c1)c(CC(=O)O)c(C)n2C(=O)c1ccc(Cl)cc1 [indomethacine]
- reduction of atherosclerosis (atherosclerosis): 38-51%
